2 compounds from patent publication US20240245694A1, “Tricyclic Compounds and their Uses” (Novartis AG, priority 2022, published 2024) can be followed below.

In data set [1] the test system is SW48 cells. In words: Proliferation assay SW48 (CellTiterGlo, 96 hours). The conditions noted are these: Homo sapiens. The data set is classed as cell-based. Summed up:
(§1)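 Cells in RPMI-1640/10% FCS were seeded overnight (SW48 2'000, DLD1-WRN-KO 1'500 cells/well), then exposed to eight 3-fold compound dilutions at 0.1% DMSO. ATP luminescence relative to a day-0 plate gives % growth (0% stasis, −100% complete kill). GI50 is the geometric mean of ≥2 independent replicates.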
(In general: Cellular ATP, detected with luciferase, serves as a proxy for viable cell number.)

Data set [2] relates to DLD1-WRN-KO cells. In words: Proliferation assay DLD1-WRN-KO (CellTiterGlo, 96 hours), off-target effects. The conditions noted are these: Homo sapiens. The data set is classed as cell-based. In short, it runs like this: as §1
Data set [3] can be described thus: Tolerability (body weight) in the SW48 xenograft study. The data set is classed as in vivo, Crl:NU(NCr)-Foxn1nu nude mice. The procedure:
Experiments were performed in female Crl:NU(NCr)-Foxn1^nu-homozygous nude mice (Charles River). Animals were housed under Optimized Hygienic Conditions in Allentown XJ cages (IVC, max. 6 mice per cage) with food and water at libitum and a 12 h:12 h light:dark cycle. Animals were allowed to acclimatize for at least 1 week before being enrolled in the experimental design. The study described here was performed according to license 1975 approved by the Basel Cantonal Veterinary Office.
Amorphous sodium salt of test compound (corrected by salt factor) was dissolved in an aqueous 20% w/v solution of 2-hydroxypropyl-beta-cyclodextrin (HPBCD). A range of concentrations was prepared by serial dilution starting from the solution at highest concentration for the highest dose in the study.
Treatment was initiated about two weeks post tumor cell inoculation, when the xenografts had reached a mean volume of approximately 200 mm^3. The tumor bearing animals were randomized based on tumor volumes into experimental groups with 6 animals per group and treatment was initiated. Compounds were dosed orally (p.o.) once per day (qd) at 1, 3, 5 or 10 mg/kg (Example 18A) and at 0.1, 0.3, 1, 3 mg/kg (Example 21A). In addition, a control group treated once per day with vehicle (20% 2-hydroxypropyl-β-cyclodextrin) was included in each study. Tumor volumes and body weights were measured two times per week until the study termination.

Data set [4] can be described thus: Storage stability of the solid at RT. The data set is classed as physicochemical. Particulars: stored at RT under ambient atmosphere for several months; degradation product Example 25. From the text: 2.60 g (3.51 mmol) of Example 21A (7R,9R)—N-(2-chloro-4-(trifluoromethyl)phenyl)-2-(3,6-dihydro-2H-pyran-4-yl)-6-((1S,6S)-5-(5-hydroxy-6-methylpyrimidine-4-carbonyl)-2,5-diazabicyclo[4.2.0]octan-2-yl)-7-methyl-5-oxo-5,7,8,9-tetrahydropyrrolo[1,2-c][1,2,4]triazolo[1,5-a]pyrimidine-9-carboxamide was stored at RT under ambient atmosphere for several months, by which the purity decreased to 86%. The degradation product title compound Example 25 was isolated by column chromatography (RediSep Column: Silica 80 g, eluent DCM:MeOH 100:0 to 90:10). The product containing fractions were combined and concentrated under reduced pressure to give a yellow foam. This foam was further purified by chiral SFC (instrument: Waters Prep SFC100-MS; column: Chiralpak IB-N 250 mm×30 mm 5 μm; eluent: A: 55% MeOH+0.1% NH3, B: 45% scCO2; flow rate: 78.0 mL/min; detection: DAD; injection volume: 1.1 mL; gradient: isocratic A: 55%, B: 45%).

With `Cc1ncnc(C(=O)N2CCN(c3c4n(c5nc(C6=CCOCC6)nn5c3=O)[C@@H](C(=O)Nc3ccc(C(F)(F)F)cc3Cl)C[C@H]4C)C[C@H]2C)c1O` [Example 18A, (7R,9R)—N-(2-chloro-4-(trifluoromethyl)phenyl)-2-(3,6-dihydro-2H-pyran-4-yl)-6-((R)-4-(5-hydroxy-6-methylpyrimidine-4-carbonyl)-3-methylpiperazin-1-yl)-7-methyl-5-oxo-5,7,8,9-tetrahydropyrrolo[1,2-c][1,2,4]triazolo[1,5-a]pyrimidine-9-carboxamide], the GI50 (commonly the concentration at which growth is held to half of that of the control) in data set [1] is 40 nM; in data set [2], above 50000 nM. The “body weight gain, of the body weight at start” value in data set [3] (1, 3, 5 or 10 mg/kg p.o. qd, after the initial body weight loss) is on record as “up to 18%”. For the same compound, the “initial body weight loss among individual animals” value in data set [3] (1, 3, 5 or 10 mg/kg p.o. qd, first ten days of treatment) is reported as at most 14%.
On to `Cc1ncnc(C(=O)N2CCN(c3c4n(c5nc(C6=CCOCC6)nn5c3=O)[C@@H](C(=O)Nc3ccc(C(F)(F)F)cc3Cl)C[C@H]4C)[C@H]3CC[C@@H]32)c1O` [Example 21A, (7R,9R)—N-(2-chloro-4-(trifluoromethyl)phenyl)-2-(3,6-dihydro-2H-pyran-4-yl)-6-((1S,6S)-5-(5-hydroxy-6-methylpyrimidine-4-carbonyl)-2,5-diazabicyclo[4.2.0]octan-2-yl)-7-methyl-5-oxo-5,7,8,9-tetrahydropyrrolo[1,2-c][1,2,4]triazolo[1,5-a]pyrimidine-9-carboxamide], for which the GI50 was 6 nM in data set [1] and above 50000 nM in data set [2]. Also, the tolerability entry in data set [3] (0.1, 0.3, 1, 3 mg/kg p.o. qd, throughout the study) is listed as “well tolerated”. The “body weight loss among individual animals on individual occasions” value in data set [3] (0.1, 0.3, 1, 3 mg/kg p.o. qd, not dose-dependent) was at most 15%. The compound also had a purity after storage in data set [4] of 86%.
